One data set relates to ischemia. The settings on record: administered prior to and throughout ischemia; cited from earlier work.
Data set [1] concerns transient middle cerebral artery occlusion (MCAO) in C57Bl6J mice. Nature of the data set: Transient middle cerebral artery occlusion (MCAO) model, infarct volume and cerebral blood flow. In kind it is in vivo. The settings on record: given i.v. for 20 minutes starting just prior to reperfusion; 45 min ischemia, 2 h reperfusion; vs saline/vehicle control. The source says:
Male C57Bl6J mice, 6-8 weeks old, were anesthetized with 3% isoflurane and anaesthesia was maintained on 1.5-2% isoflurane. A Doppler flowmetry probe (Perimed, Sweden) was attached to the skull to continuously monitor the cerebral blood flow. Left common carotid artery (CCA) and left external carotid artery were exposed and permanently ligated. Left […] was clamped temporarily. Next, an incision was made on CCA and a filament with a silicon tip (0.22 mm in diameter, 2-3 mm in length, Doccol, USA) was inserted and guided forward into internal carotid artery until it reached middle cerebral artery (MCA). The occlusion of MCA was confirmed by seeing at least 70% drop in cerebral blood flow. […]
At the end of reperfusion, mice were sacrificed by cervical dislocation; brain was collected and sliced at 2 mm thicknesses and stained with 2% triphenyltetrazolium chloride in saline at 37 C for 10-15 min. […] The healthy tissue area (red-stained) in both hemispheres was measured using ImageJ. The infarct volume % was calculated by first calculating the volume of healthy tissue in each hemisphere (Σarea of each slice×thickness of slice), then by the formula: ((volume of healthy tissue in uninjured hemisphere −volume of healthy tissue in injured hemisphere) ÷volume of healthy tissue in uninjured hemisphere)×100. […]

Data set [2] has as its system C2Cl2 mouse myoblast cells. Nature of the data set: Malonate uptake in vitro (LC-MS of cell extracts). In kind it is in vitro ADME. The settings on record: for malonate concentration within the cell: allowing for a cell volume of 260 mg protein/ml. The protocol:
We first explored whether malonate could be taken up by cells in culture. C2Cl2 mouse myoblast cells were plated at 300,000 cells/well and adhered overnight. The next day, cells were treated with either DSM (a—0.25 mM; b—0.25, 1 or 5 mM) or untreated for 0 to 240 min before cooling plates on ice and rapidly washing 4 times with ice-cold PBS and placed on dry ice. Cells were extracted for mass spectrometry with 500 μl extraction buffer (50% methanol, 30% acetonitrile and 20% water) with 1 nmol ^13C-malonate internal standard centrifuged to remove insoluble debris.

Data set [3] in a line: Malonate uptake in vivo (tissue levels after tail vein bolus, LC-MS/MS). The arrangement: species or system C57/BL6 mice. Conditions: 160 mg/kg tail vein bolus, 5 min after injection, normoxic mouse. As to the method: To see if this uptake also occurred in vivo, we injected disodium malonate into a normoxic mouse by a bolus in the tail vein and measured the malonate levels in tissues 5 min later. C57/BL6 mice were tail vein injected with DSM (160 mg/kg) before cervical dislocation 5 min after the injection, tissues harvested and clamp frozen in liquid nitrogen. For tissue analysis, tissues were weighed and extracted in 25 μl/mg extraction buffer containing internal standard and homogenised in a Precellys 24 homogeniser. Homogenates were centrifuged to remove insoluble debris. Extracts were analysed by LC-MS/MS and the levels of malonate assessed by interpolation of a malonate standard curve.

“Also recorded” adds a separate entry of the source.

Regarding `COC(=O)CC(=O)OC` [DMM, dimethyl malonate], the protective effect result in the data set with ischemia was “protective”. The “necrotic brain infarct volume” value in data set [1] is on record as “no significant difference; also recorded: not effective”.
Regarding `O=C([O-])CC(=O)[O-].[Na+].[Na+]` [DSM, disodium malonate], the intracellular malonate levels in data set [2] (5 mM DSM, after 5 min (FIG. 4b)) is ~2 nmol/mg protein. In addition, the “malonate uptake into cells” value in data set [2] (0.25, 1 or 5 mM, 0 to 240 min (FIG. 4b)) is “both dose and time-dependent”. Also, in data set [2] (after 5 min incubated with 250 μM), the “malonate concentration within the cell” value is “about 50”. In addition, the “malonate concentration within the cell” value in data set [2] (after 5 min incubated with 5 mM) is recorded as ~500. Moreover, the intracellular malonate levels in data set [2] (incubated with 250 μM disodium malonate (FIG. 4a)) was 0.2-0.4 nmol/mg protein. In addition, in data set [3], the “tissue levels of malonate, brain” value is “uptake”; the “tissue levels of malonate, heart” value is “significant amounts”; the “tissue levels of malonate, kidney” value was “particularly high”; the “tissue levels of malonate, liver” value is reported as “significant amounts”. Further, the “necrotic brain infarct volume” value in data set [1] is “decreased”.

(Values after patent US20220409562A1, “Treatment or Prevention of Ischaemic Stroke Reperfusion Injury” (Cambridge Enterprise Limited, priority 2019, published 2022).)
